We go through 13 molecules from publication PMC6278568, “Discovery of 3-Amino-2-Hydroxypropoxyisoflavone Derivatives as Potential Anti-HCV Agents” (Molecules, 2018).

Entries after “also recorded” stand apart in the source; their conditions may differ. Where two headings read alike, the source gives them in different places.

As usually defined, the melting point is the temperature of the solid-liquid transition.

The test system of one data set is ava-5 cells. Put plainly: Cytotoxicity in Ava-5 cells (XTT method). The note with it: Ava-5 cells, 72 h, XTT method; read-out: CC50 (concentration causing a 50% growth inhibition of uninfected ava-5 cells). It counts as cell-based. As for the experimental part: (§1) Compounds were dissolved in DMSO at 10 mM and then diluted in culture medium.
(§2) Ava5 cells, an engineered HCV subgenomic replicon cell line, were cultured in Dulbecco′s modified Eagle′s medium (DMEM) with 10% heat-inactivated fetal bovine serum, 1% antibiotic–antimycotic, and 1% non-essential amino acids. Ava5 cells were maintained in DMEM with 1 mg mL^−1 G418 to maintain the stable expression of replicon.
(§3) For cytotoxicity tests, run in parallel with antiviral assays, plates at an initial density of (5 × 10^3 cells/well) were treated with or without serial dilutions of test compounds. Cell viability was determined after 72 h at 37 °C in a humidified CO2 (5%) atmosphere by the (2,3-bis[2-methyloxy-4-nitro-5-sulfophenyl]-2H-tetrazolium-5-carboxanilide) (XTT) method.
(In general: Tetrazolium assays rely on reduction of a dye to a coloured formazan, in cell work by metabolically active cells.)

Another data set relates to HCV replication. Put plainly: Anti-HCV activity in Ava-5 HCV subgenomic replicon cells (firefly luciferase assay). It counts as cell-based, Hepatitis C virus. Conditions: Ava-5 cells; for EC50: treated for three days, firefly luciferase assay, read-out: EC50 (concentration resulting in a 50% inhibition in virus production / HCV replication); for anti-HCV activity compared with ribavirin (in words): three days. The protocol:
Ava-5 cells were treated with compounds 6a–i or the positive ribavirin for three days, and then analyzed through firefly luciferase assay. The concentration that inhibited 50% HCV replication (EC50), the concentration that inhibited 50% cell growth (CC50), and the selectivity index (SI: CC50/EC50) of compounds were determined with ribavirin as a positive control.
as §1, §2
For orientation: In antiviral work, replicon cells carry a viral genome segment that copies itself.

Data set [1] in a line: Cytotoxicity in Ava-5 cells (XTT method). Conditions: human, Ava5 cells (HCV subgenomic replicon cell line); Ava-5 cells, 72 h, XTT method; read-out: CC50 (concentration causing a 50% growth inhibition of uninfected ava-5 cells). It is filed as cell-based. As for the experimental part: as §1, §2, §3
A further data set deals with HO-1 protein expression. The data set can be described thus: HO-1 protein expression in Ava-5 cells by western blotting. It is filed as cell-based. Conditions: 10 μM, 3 days, compared with DMSO-treated cells. The protocol: To determine whether compounds 6b, 6e, 6h and 6i have impact on HO-1 protein expression in Ava-5 cells, we treated these compounds at 10 μM in Ava5 cells.
Ava5 cells were seeded in 24-well plates at a density of 5 × 10^4 cells per well overnight and treated with indicated reagent at proper concentrations for 3 days. Cells were washed with cold phosphate buffer saline (PBS) and lysed by radioimmunoprecipitation assay (RIPA) lysis buffer (50 mM Tris-HCl, pH 7.5, 150 mM NaCl, 1% Nonidet P-40, 2 mM EDTA, 1 mM EGTA, 1 mM NaVO3, 10 mM NaF, 1 mM DTT, 1 mM PMSF, 25 μg/mL aprotinin, and 25 μg/mL leupeptin) and stored at −20 °C. The protein concentration was determined by the Bradford method. Ten μg protein were separated by 10% SDS-PAGE and transferred onto a polyvinylidene difluorid (PVDF) membrane. The membrane was blocked with 5% non-fat dried milk and incubated with specific antibodies against NS5B (1:5000; Abcam Cambridge, MA, USA), glyceraldehyde-3-phosphate dehydrogenase (GAPDH) and anti-HO-1 (1:3000, Abcam Cambridge, MA, USA). Antibodies were diluted in 5% milk containing Tris-buffered saline (TBS) and 0.5% Tween. The blotting signal was developed using an ECL detection kit (PerkinElmer, Norwalk, CT, USA) and was counted by the software Quantity One (Bio-Rad, Foster, CA, USA).
Compound 6b, 6e, 6h and 6i induced HO-1 protein expression. Ava-5 cells were treated with compounds at 10 μM for 3 days. The cell lysate was subjected to western blotting with anti-HO-1 and anti-GAPDH antibodies.

For data set [2], the system named is Nrf2 / ARE transactivation. The data set can be described thus: ARE transactivation, p3xARE-Luc reporter in Ava-5 cells (luciferase assay). It counts as cell-based. The note with it: p3xARE-Luc-transfected Ava-5 cells, 1 and 10 μM, 3 days. The text has this:
Heme oxygenase 1 expression is regulated by the transcription factors Nrf2, Keap1, and Bach1 through the binding of ARE in its promoter region; therefore, we determined whether isoflavones-mediated HO-1 induction was dependent on ARE transactivation by treating p3xARE-Luc-transfected ava-5 cells with increasing concentrations of […] for 3 days.
Ava5 cells were transfected with the HO-1 promoter-driven luciferase plasmid, pHO-1-Luc, using the T-pro^TM transfection reagent (Ji-Feng Biotechnology Co., Ltd., Taipei, Taiwan) according to the manufacturer′s instructions. The transfected cells were treated with compounds at various concentrations for 3 days. Each transfection complex contains 0.1 μg pSEAP, a secreted alkaline phosphatase (SEAP) expression vector, for normalization luciferase activity serving as a transfection control. The luciferase activity assay was performed using the Bright-Glo Luciferase assay system (Promega) (Madison, WI, USA) according to the manufacturer′s instructions.
Figure 6 Isoflavones inhibited HCV replication by upregulating Nrf2 expression. Compound 6b, 6e, 6h and 6i stimulated ARE transactivation in Ava-5 cells. The antioxidant response reporter plasmid, p3xARE-Luc, was transfected into Ava-5 cells and then treated with isoflavones (1 and 10 μM) for 3 days. The relative induction of antioxidant activity was determined by luciferase assay. The activity of untreated Ava-5 cells was considered to be 1.

A further data set has as its system HCV genotype 1b. Conditions: cited from earlier work.
Another data set has as its system HCV genotype 2a. Conditions: cited from earlier work.
In another data set the test system is HCV. Conditions: cited from earlier work.

“3-{{3-{[3-(3,4-Dimethoxyphenyl)-4-oxo-4H-chromen-7-yl]oxy}-2-hydroxypropyl}amino}-2-(1H-indol-3-yl)propanoic acid [Compound 6d]”: the CC50 in the data set with ava-5 cells turned out to be 98.8 ± 3.67 µM. For the same molecule, the EC50 with HCV replication is > 20 µM.

Consider `COc1ccc(-c2coc3cc(OCC(O)CNCCc4c[nH]c5ccccc45)ccc3c2=O)cc1OC` (stereo not shown) [Compound 6c, 7-{3-{[2-(1H-Indol-3-yl)ethyl]amino}-2-hydroxypropoxy}-3-(3,4-dimethoxyphenyl)-4H-chromen-4-one], for which the melting point lay in the range of 178 to 179 °C. In data set [1], the CC50 at 72 h came out at 36.9 ± 0.46 µM. The “SI (selectivity index, CC50/EC50)” value with HCV replication turned out to be 2.26. Besides, the EC50 with HCV replication (Hepatitis C virus, Ava5, 72 h) is 16.3 ± 0.95 µM.

`CCC(C)(C)NCC(O)COc1ccc2c(=O)c(-c3ccc(OC)c(OC)c3)coc2c1` (stereo not shown) [Compound 6e, 3-(3,4-Dimethoxyphenyl)-7-(2-hydroxy-3-(tert-pentylamino)propoxy)-4H-chromen-4-one]: in data set [1], the CC50 at 72 h worked out at 87.9 ± 2.13 µM. In addition, in the data set on HCV replication, the “anti-HCV activity compared with ribavirin (in words)” value was “more active than ribavirin; also recorded: higher anti-HCV effects than ribavirin” and the “SI (selectivity index, CC50/EC50)” value stood at 10.80. Also, the EC50 in the data set with HCV replication (Hepatitis C virus, Ava5, 72 h) worked out at 8.14 ± 1.74 µM. The HO-1 protein level result in the data set with HO-1 protein expression is “could induce HO-1 protein level”. Moreover, the ARE-mediated luciferase activity entry in data set [2] is reported as “increased ARE-mediated luciferase activity”.

As for `COc1ccc(-c2coc3cc(OCC(O)CNC(C)(C)c4ccccc4)ccc3c2=O)cc1OC` (stereo not shown) [Compound 6f, 3-(3,4-Dimethoxyphenyl)-7-{2-hydroxy-3-[(2-phenylpropan-2-yl)amino]propoxy}-4H-chromen-4-one], the melting point lay within 131 to 132 °C. Further, the CC50 at 72 h in [1] came to 47.2 ± 2.74 µM. In addition, in the data set with HCV replication, the “SI (selectivity index, CC50/EC50)” value was 3.30. Moreover, in the data set on HCV replication (Hepatitis C virus, Ava5, 72 h), the EC50 turned out to be 14.3 ± 0.84 µM.

With `NC(=O)c1ncn([C@@H]2O[C@H](CO)[C@@H](O)[C@H]2O)n1` [ribavirin, reference compound], in data set [1], the CC50 at 72 h amounted to 106 ± 3.69 µM. Further, the “SI (selectivity index, CC50/EC50)” value with HCV replication is reported as 8.08. Besides, in the data set with HCV replication (Hepatitis C virus, Ava5, 72 h), the EC50 came out at 13.2 ± 1.63 µM.

Molecule `COc1ccc(-c2coc3cc(OCC(O)CNCCc4ccc(O)cc4)ccc3c2=O)cc1OC` (stereo not shown) [Compound 6a, 3-(3,4-Dimethoxyphenyl)-7-{2-hydroxy-3-[(4-hydroxyphenethyl)amino]propoxy}-4H-chromen-4-one] yielded a melting point of 117 to 118 °C. Moreover, the CC50 at 72 h in data set [1] is 71.7 ± 4.44 µM. In addition, the “SI (selectivity index, CC50/EC50)” value in the data set with HCV replication is reported as <3.58. Besides, the EC50 with HCV replication (Hepatitis C virus, Ava5, 72 h) is > 20 µM.

For `c1ccc(Cn2c(-c3ccccc3)cc3c2CCCC3)cc1` [Compound 1, 1-benzyl-2-phenyl-4,5,6,7-tetrahydro-1H-indole], the values for the EC50 with HCV genotype 1b and with HCV genotype 2a were 7.9 µM and 2.6 µM, respectively.

Turning to `COc1ccc(Nc2cc3oc(-c4ccco4)nc3c3ccccc23)cc1` [Compound 4, 2-(furan-2-yl)-N-(4-methoxyphenyl)naphtho[1,2-d]oxazol-5-amine], the EC50 with HCV (anti-HCV evaluation of naphtho[1,2-d]oxazole derivatives) is 0.63 µM.

Molecule `COc1ccc(-c2coc3cc(OCC(O)CNC(C)(C)Cc4ccc(F)cc4)ccc3c2=O)cc1OC` (stereo not shown) [Compound 6h, 3-(3,4-Dimethoxyphenyl)-7-{3-{[1-(4-fluorophenyl)-2-methylpropan-2-yl]amino}-2-hydroxypropoxy}-4H-chromen-4-one] returned a melting point of 151 to 152 °C. Further, in data set [1], the CC50 at 72 h was determined as 111 ± 4.39 µM. Further, in the data set with HCV replication, the “anti-HCV activity compared with ribavirin (in words)” value was “more active than ribavirin; also recorded: higher anti-HCV effects than ribavirin” and the “SI (selectivity index, CC50/EC50)” value was determined as 11.87. For the same molecule, the EC50 with HCV replication (Hepatitis C virus, Ava5, 72 h) is 9.35 ± 0.97 µM. Moreover, the HO-1 protein level entry in the data set with HO-1 protein expression is “could induce HO-1 protein level”. Further, the ARE-mediated luciferase activity entry in data set [2] is “increased ARE-mediated luciferase activity”.

Turning to `COc1ccc(-c2coc3cc(OCC(O)CNC(C)(C)N4CCOCC4)ccc3c2=O)cc1OC` (stereo not shown) [Compound 6g, 3-(3,4-Dimethoxyphenyl)-7-{2-hydroxy-3-[(2-morpholinopropan-2-yl)amino]propoxy}-4H-chromen-4-one], in data set [1], the CC50 at 72 h came out at 144 ± 3.82 µM. For the same molecule, in the data set on HCV replication, the “SI (selectivity index, CC50/EC50)” value was <7.17. The EC50 with HCV replication (Hepatitis C virus, Ava5, 72 h) is > 20 µM.

The molecule `COc1ccc(-c2coc3cc(OCC(O)CNCC4(N5CCOCC5)CCCCC4)ccc3c2=O)cc1OC` (stereo not shown) [Compound 6i, 3-(3,4-Dimethoxyphenyl)-7-{2-hydroxy-3-{[(1-morpholinocyclohexyl)methyl]amino}propoxy}-4H-chromen-4-one] had a melting point of 67 to 68 °C. For the same molecule, the CC50 at 72 h in [1] was found to be 156 ± 1.58 µM. In the data set with HCV replication, the “anti-HCV activity compared with ribavirin (in words)” value is given as “more active than ribavirin; also recorded: higher anti-HCV effects than ribavirin” and the “SI (selectivity index, CC50/EC50)” value is listed as 14.55. In addition, the EC50 in the data set on HCV replication (Hepatitis C virus, Ava5, 72 h) amounted to 10.7 ± 0.87 µM. The HO-1 protein level result in the data set on HO-1 protein expression is on record as “could induce HO-1 protein level”. For the same molecule, the ARE-mediated luciferase activity result in data set [2] is on record as “increased ARE-mediated luciferase activity”.

As to `O=c1c(O)c(-c2ccc(O)c(O)c2)oc2cc(OCc3cccc(Cl)c3)cc(O)c12` [Compound 3, 7-[(3-chlorobenzyl)oxy]-2-(3,4-dihydroxyphenyl)-3,5-dihydroxy-4H-chromen-4-one], in the data set on HCV (anti-HCV evaluation of quercetin analogues), the EC50 was 3.8 µM.

For `CCOC(=O)C1C[C@@H]2/C(=N/Nc3ccccc3)CCCC[C@@H]2N1S(=O)(=O)c1ccc(C)cc1` (stereo partly drawn) [Compound 2, (3aS,8aS,E)-ethyl-4-(2-phenylhydrazono)-1-tosyldecahydro-cyclohepta[b]pyrrole-2-carboxylate], the EC50 in the data set with HCV genotype 1b is 1.8 µM; in the data set with HCV genotype 2a, 4.5 µM.
